Measured values taken from paper PMC5063400, “A Natural Mutation in Helix 5 of the Ligand Binding Domain of Glucocorticoid Receptor Enhances Receptor-Ligand Interaction” (PLoS ONE, 2016).
Residue numbers refer to the chain shown, from its start. Entries after “also recorded” stand apart in the source; their conditions may differ. Read-outs that look alike come from different tables or passages of the source.

Columns and labels:
[1] = biological target: T1, porcine GR Val610 (mutant) (Sus scrofa, UniProt Q9N1U3); test: Transactivation assay (MMTV-luciferase reporter) in Cos-7 cells, mutant Val610 GR
T1 sequence (Q9N1U3 1-782): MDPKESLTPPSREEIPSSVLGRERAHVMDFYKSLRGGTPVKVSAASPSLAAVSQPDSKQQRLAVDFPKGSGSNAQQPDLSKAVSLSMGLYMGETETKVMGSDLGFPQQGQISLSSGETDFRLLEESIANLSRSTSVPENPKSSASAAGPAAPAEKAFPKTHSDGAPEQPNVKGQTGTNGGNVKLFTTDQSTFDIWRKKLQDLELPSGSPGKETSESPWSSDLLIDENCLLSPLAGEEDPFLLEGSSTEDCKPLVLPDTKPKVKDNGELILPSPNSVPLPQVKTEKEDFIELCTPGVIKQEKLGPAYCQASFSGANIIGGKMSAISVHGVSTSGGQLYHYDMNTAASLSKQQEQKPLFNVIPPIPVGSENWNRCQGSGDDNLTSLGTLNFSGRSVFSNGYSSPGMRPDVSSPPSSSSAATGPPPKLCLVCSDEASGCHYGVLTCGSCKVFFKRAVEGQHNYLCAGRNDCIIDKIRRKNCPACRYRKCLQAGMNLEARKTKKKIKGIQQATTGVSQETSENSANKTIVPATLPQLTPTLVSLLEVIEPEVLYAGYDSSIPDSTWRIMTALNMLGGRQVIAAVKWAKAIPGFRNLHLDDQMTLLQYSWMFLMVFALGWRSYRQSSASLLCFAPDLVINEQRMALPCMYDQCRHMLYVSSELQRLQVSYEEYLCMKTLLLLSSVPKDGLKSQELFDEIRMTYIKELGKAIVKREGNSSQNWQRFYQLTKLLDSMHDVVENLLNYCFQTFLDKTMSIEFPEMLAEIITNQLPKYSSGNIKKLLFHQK
Method: Porcine GR expression plasmids (pCMV-GRA610 or pCMV-GRV610) harboring the SNP NR3C1 c.1829C>T (causing the Ala610Val substitution) were used for a transactivation assay in Cos-7 cells as previously described [13]. In brief, monkey kidney Cos-7 cells were seeded in 96-well plates at a density of 2.5×10^4 cells/well in DMEM (Invitrogen, Karlsruhe, Germany) with 10% FCS. Twenty-four hours after seeding, cells were co-transfected with 200 ng of expression vector, 100 ng of pGL4.36 reporter (Promega, Mannheim, Germany) and 2 ng of pRL-SV40 plasmid (Promega) according to the Lipofectamine 2000 protocol (Invitrogen). The reporter plasmid pGL4.36 expresses firefly luciferase under control of the glucocorticoid-inducible MMTV (Murine Mammary Tumor Virus Long Terminal repeat) promoter while the pRL-SV40 vector constitutively expresses the Renilla luciferase and was used to normalize for transfection efficiency. […] Therefore, cell media was replaced by DMEM supplemented with respective steroid concentrations and 10% charcoal-stripped FCS (PAA Laboratories, Coelbe, Germany). Twenty-four hours after stimulation, firefly and Renilla luciferase activities were measured using the Dual-Glo Luciferase Assay System (Promega) in a DTX 880 Multimode Detector (Beckman Coulter, Krefeld, Germany).

[2] = biological target: T2, porcine GR Ala610 (wild-type) (Sus scrofa, UniProt Q9N1U3, V610A); test: Transactivation assay (MMTV-luciferase reporter) in Cos-7 cells, wild-type Ala610 GR; type: cell-based; conditions: for EC50: Cos-7 cells
T2 construct: expressed in transfected cells; host or cells: Cos-7
T2 sequence (Q9N1U3 1-782 V610A): T1 sequence (Q9N1U3 1-782) with V610A
Method: Porcine GR expression plasmids (pCMV-GRA610 or pCMV-GRV610) harboring the SNP NR3C1 c.1829C>T (causing the Ala610Val substitution) were used for a transactivation assay in Cos-7 cells as previously described. In brief, monkey kidney Cos-7 cells were seeded in 96-well plates at a density of 2.5×10^4 cells/well in DMEM (Invitrogen, Karlsruhe, Germany) with 10% FCS. Twenty-four hours after seeding, cells were co-transfected with 200 ng of expression vector, 100 ng of pGL4.36 reporter (Promega, Mannheim, Germany) and 2 ng of pRL-SV40 plasmid (Promega) according to the Lipofectamine 2000 protocol (Invitrogen). The reporter plasmid pGL4.36 expresses firefly luciferase under control of the glucocorticoid-inducible MMTV (Murine Mammary Tumor Virus Long Terminal repeat) promoter while the pRL-SV40 vector constitutively expresses the Renilla luciferase and was used to normalize for transfection efficiency. […] Therefore, cell media was replaced by DMEM supplemented with respective steroid concentrations and 10% charcoal-stripped FCS (PAA Laboratories, Coelbe, Germany). Twenty-four hours after stimulation, firefly and Renilla luciferase activities were measured using the Dual-Glo Luciferase Assay System (Promega) in a DTX 880 Multimode Detector (Beckman Coulter, Krefeld, Germany).
Transcript abundance was corrected for the copy number of expression plasmid.
For all steroids except testosterone, two separate experiments were performed in triplicate. Data were adjusted for transfection efficiency and the resulting luciferase ratios were normalized to cells that were treated with ethanol only. Fold-changes of transcriptional activity were compared using a generalized mixed linear model including fixed effects of genotype, hormone concentration, and the interaction of the two. Data were analyzed using SAS V9.3 software (SAS Institute, Cary, NC, USA). Least-square means were compared at each concentration and p-values were adjusted by Dunnett’s post-hoc test. Fold-change values were further adjusted to maximum relative luciferase induction and dose-response curves, EC50, and significance of EC50 differences were estimated using dose-response equation of GraphPad Prism 5 (GraphPad Software Inc, San Diego, CA).

GFP-tagged Val610 GR = GFP-tagged Val610 GR (Sus scrofa, UniProt Q9N1U3); conditions: Cos-7 cells, after stimulation with dexamethasone
From the text: (§1) Green fluorescent protein (GFP)-tagged expression vectors were generated to track subcellular distribution and movement of both GR variants. In brief, the EGFP region was amplified from EGFP-N1 (Clontech, Heidelberg, Germany), using primers EGFP_N_fw and EGFP_N_rev (Table 1) and the proofreading PrimeSTAR HS DNA Polymerase (MoBiTec, Göttingen, Germany). The product was inserted into the pCMV-Tag1 vector (Agilent Technologies, Waldbronn, Germany) using NotI restriction sites. The resulting plasmid was further digested with BamHI and BglII restriction enzymes to insert BclI digested GR-alpha fragments. Therefore, GR-alpha fragments were amplified using cDNA of two individuals homozygous for the c.1829C>T SNP with primers GR_N-Flag_fw2 and GR_N-Flag_rev (Table 1). […]
(§2) Cos-7 cells were seeded in culture dishes (Greiner Bio-One, Frickenhausen, Germany) or 8-well chamber slides (VWR International, Hannover, Germany) for live cell imaging at a density of 1.6x10^5 cells/mL in DMEM with 10% FCS and transfected one day later with pCMV-GFP-GRA610 or pCMV-GFP-GRV610 using a Lipofectamine:DNA-ratio of 3:1. […] Before visualization by microscopy, media were replaced with phenol red-free DMEM supplemented with 5% charcoal stripped FCS, and the dish or slide to be analyzed was placed in a microscope incubator at 37°C and 5% CO2.

GFP-tagged Ala610 GR = GFP-tagged Ala610 GR (Sus scrofa, UniProt Q9N1U3, V610A); conditions: Cos-7 cells, after stimulation with dexamethasone
From the text: as §1, §2

Ala610 GR [3] = biological target: T3, Ala610 GR (Sus scrofa, UniProt Q9N1U3, V610A); conditions: [3H]-dexamethasone, pituitary cytosol, homozygous wild-type
Method: (§3) Pituitary glands were quickly removed from pigs after electronarcotization and exsanguination, snap-frozen, and stored at -80°C. […] Nine pools per genotype, each containing two to three samples, were analyzed. In total 40 pituitaries were used. Pituitaries from homozygous carriers of the alternative variant were not available due to its low frequency.
(§4) GR binding analysis was performed on the pooled samples as previously described. Briefly, tissues were homogenized in ice-cold 10 mM Tris-HCl buffer, pH 7.5, containing 12.5 mM EDTA, 10 mM sodium molybdate, […] sucrose, and 5 mM dithiothreitol using an electric homogenizer (Ultra-Turrax, IKA, Staufen, Germany). The homogenate was centrifuged at 120,000 × g for 60 min at 0–4°C to isolate cytosol (supernatant fraction). […] Non-specific binding was determined with a parallel incubation containing 500-fold excess of RU 28362 (kindly donated by Roussel Uclaf, France), which binds selectively to GR. The separation of bound from free ligand was performed by precipitation with dextran-coated charcoal and the receptor-[^3H]-steroid complexes were counted in the Tri-Carb 2900TR scintillation counter at 50% efficiency. Protein concentrations for each pool were determined with bovine serum albumin as a standard. Binding values were corrected for the amount of protein input. Individual binding curves for each pool were fitted using GraphPad Prism 5 as described above. Resulting KD and Bmax values were compared between genotypes using a mixed linear model implemented in SAS. The model included the effect of genotype and experimental batch.

AlaVal610 GR = AlaVal610 GR (Sus scrofa, UniProt Q9N1U3); conditions: pituitary cytosol
Method: as §3, §4

Ala610 GR [4] = biological target: T3, Ala610 GR; conditions: [3H]-dexamethasone, whole Cos-7 cells, mean ± SE
Method: (§5) A whole-cell GR binding assay was adapted from the protocol previously described for peripheral blood mononuclear cells (PBMC). Cos-7 cells were seeded in 10-cm dishes and T75 flasks at a density of 1.75x10^5 cells/mL. After 24 hours in culture, cells were transfected with pCMV-GRA610 or pCMV-GRV610 using either 10 μg plasmid and 50 μL Fugene HD (Promega) for dishes or 15 μg plasmid and 75 μL Fugene HD for flasks. After another 24 hours in culture, media were replaced with serum-free DMEM to avoid contamination with steroids. One day later cells were pelleted, washed with PBS, and resuspended in DMEM supplemented with 10 mM HEPES buffer. […] After incubation, cells were washed with ice-cold PBS and centrifuged (10 min, 400 × g, 4°C) three times. Cell pellets were then resuspended in 100 μL PBS and mixed with 3 mL scintillation fluid (Rotiszint eco plus, Carl Roth GmbH, Karlsruhe, Germany). Radioactivity was measured in a spectral liquid scintillation counter (Tri-Carb 2900TR, Perkin Elmer Inc., USA) at 50% efficiency. The experiment was performed three times.
(§6) Saturation binding analysis included in nonlinear regression models implemented in GraphPad Prism 5 was used to fit binding curves to estimate the dissociation constant (KD, mean ± SE), maximum specific binding (Bmax, mean ± SE), and differences in these values dependent upon GR genotype.

Val610 GR = Val610 GR (Sus scrofa, UniProt Q9N1U3); test: cell-based
Method: as §5, §6

[5] = wide concentration range 0.01 nM to 10 μM, 24 h stimulation

T3 sequence (Q9N1U3 whole entry V610A): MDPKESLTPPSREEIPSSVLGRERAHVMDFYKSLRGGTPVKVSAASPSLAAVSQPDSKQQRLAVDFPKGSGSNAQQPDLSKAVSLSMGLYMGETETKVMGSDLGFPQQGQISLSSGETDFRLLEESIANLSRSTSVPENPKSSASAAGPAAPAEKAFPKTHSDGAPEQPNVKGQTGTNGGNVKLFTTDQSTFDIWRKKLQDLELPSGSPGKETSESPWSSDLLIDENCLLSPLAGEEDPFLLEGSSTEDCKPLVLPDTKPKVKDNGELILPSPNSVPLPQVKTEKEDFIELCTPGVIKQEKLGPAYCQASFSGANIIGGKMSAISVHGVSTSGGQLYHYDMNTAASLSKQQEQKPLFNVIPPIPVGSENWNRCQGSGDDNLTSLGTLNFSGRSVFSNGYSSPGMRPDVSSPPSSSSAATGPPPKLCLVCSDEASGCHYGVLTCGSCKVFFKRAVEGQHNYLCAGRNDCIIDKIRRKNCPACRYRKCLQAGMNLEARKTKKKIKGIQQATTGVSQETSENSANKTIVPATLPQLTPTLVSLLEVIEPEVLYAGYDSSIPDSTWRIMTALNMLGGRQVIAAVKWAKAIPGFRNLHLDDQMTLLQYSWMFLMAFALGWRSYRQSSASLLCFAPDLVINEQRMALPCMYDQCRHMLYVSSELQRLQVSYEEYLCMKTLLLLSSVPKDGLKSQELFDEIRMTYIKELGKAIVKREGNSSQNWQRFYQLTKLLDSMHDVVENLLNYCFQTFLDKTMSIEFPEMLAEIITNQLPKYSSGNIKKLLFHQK
GFP-tagged Ala610 GR, sequence (Q9N1U3 whole entry V610A): as above

C[C@]12CCC(=O)C=C1CC[C@@H]1[C@@H]2[C@@H](O)C[C@]2(C=O)[C@@H](C(=O)CO)CC[C@@H]12 [aldosterone]
EC50 [1]: 50.6 nM
EC50 [2, 5]: 161 nM

C[C@]12CCC(=O)C=C1CC[C@@H]1[C@@H]2[C@@H](O)C[C@@]2(C)[C@H]1CC[C@]2(O)C(=O)CO [cortisol]
EC50 [1]: 36.5 nM
EC50 ([1]; EC50 of transactivation, Val610 GR, Cos-7 cells, narrow concentration range): 22.9 nM
EC50 ([2]; narrow concentration range): 37.2 nM
EC50 [2, 5]: 44.7 nM

C[C@@H]1C[C@H]2[C@@H]3CCC4=CC(=O)C=C[C@]4(C)[C@@]3(F)[C@@H](O)C[C@]2(C)[C@@]1(O)C(=O)CO [dexamethasone]
time to full translocation into the nucleus (GFP-tagged Val610 GR): ≤ 15 min
time to full translocation into the nucleus (GFP-tagged Ala610 GR): ≤ 15 min
Bmax (Ala610 GR [3]): 62.2 ± 5.9 fmol/mg protein
Kd (AlaVal610 GR; [3H]-dexamethasone 0.2 to 24 nM, heterozygous carriers): 0.529 ± 0.068 nM
Bmax (AlaVal610 GR; [3H]-dexamethasone, heterozygous carriers): 63.4 ± 5.0 fmol/mg protein
increased affinity of heterozygous carriers compared to wild-type controls (AlaVal610 GR): 1.7 fold
Bmax (maximum specific binding) (Ala610 GR [4]): 1479 ± 79.7 fmol/mL
Kd (Val610 GR): 6.08 nM
Bmax (maximum specific binding) (Val610 GR; [3H]-dexamethasone, whole Cos-7 cells, mean ± SE): 1204 ± 118.1 fmol/mL

C[C@]12CC[C@H]3[C@@H](CCC4=CC(=O)CC[C@@]43C)[C@@H]1CC[C@@H]2O [testosterone]
activation of the MMTV-driven luciferase reporter ([1]; Val610 GR, data not shown): unable to activate; also recorded: remained insensitive
activation of the MMTV-driven luciferase reporter ([2]; data not shown): unable to activate
